Earlier results, collected in patent US9351926B2 (Pharmaceutical Solutions Industry Ltd., priority 2012, dated 2016).

Experiments:
[1] = children, overdose
platelet aggregation = settings: single dose 400 mg within 8 hours before or within 30 minutes after immediate release aspirin (81 mg)
[2] = low dose (e.g. 1200 mg daily); epidemiological studies

Compound	interconversion into the active [+]S species (in adults) [%]	Bioavailability (in vivo)	Excretion (in vivo)	concentration in breast milk (limited studies)	time of peak serum concentrations after ingestion (oral, empty stomach) [min]	time of peak levels after administration (oral, taken with food) [h]	ingested dose that may cause symptoms [1]	effect on the action of aspirin on thromboxane formation or platelet aggregation (platelet aggregation)	risk of myocardial infarction [2]
CC(C)Cc1ccc([C@@H](C)C(=O)O)cc1 [HR-form]	~60	–	–	–	–	–	–	–	–
CC(C)Cc1ccc(C(C)C(=O)O)cc1 (racemic) [Ibuprofen, (RS)-2-(4-(2-methylpropyl)phenyl) propanoic acid]	–	49-73%	Renal	very low concentrations	45	1 to 2	more than 400 mg/kg	decreased effect of aspirin on the formation of thromboxane or platelet aggregation	do not suggest that low dose ibuprofen (e.g. 1200 mg daily) is associated with an increased risk of myocardial infarction
